# Experimental data: US9695155B2, “Herbicidal substituted pyrimidinyloxy benzene compounds” (E. I. DU PONT DE NEMOURS AND COMPANY, priority 2013, dated 2017)
# Key:
# [1] = test system: wild oat; assay: Test D postemergence; format: in vivo, Avena fatua; details: Avena fatua, post-emergence, scale 0 to 100 (0 no effect, 100 complete control), read-out: Plant response rating, Oat, Wild
# From the text: Seeds of plant species selected from bluegrass (annual bluegrass, Poa annua), blackgrass (Alopecurus myosuroides), canarygrass (littleseed canarygrass, Phalaris minor), chickweed (common chickweed, Stellaria media), galium (catchweed bedstraw, Galium aparine), bromegrass, downy (downy bromegrass, Bromus tectorum), field poppy (Papaver rhoeas), field violet (Viola arvensis), green foxtail (Setaria viridis), deadnettle (henbit deadnettle, Lamium amplexicaule), Italian ryegrass (Lolium multiflorum), kochia (Kochia scoparia), lambsquarters (Chenopodium album), oilseed rape (Brassica napus), pigweed (Amaranthus retroflexus), chamomile (scentless chamomile, Matricaria inodora), Russian thistle (Salsola kali), speedwell (bird's-eye speedwell, Veronica persica), spring barley (Hordeum vulgare), spring wheat (Triticum aestivum), wild buckwheat (Polygonum convolvulus), wild mustard (Sinapis arvensis), wild oat (Avena fatua), wild radish (Raphanus raphanistrum), windgrass (Apera spica-venti), winter barley (Hordeum vulgare), and winter wheat (Triticum aestivum) were planted into a silt loam soil and treated preemergence with test chemicals formulated in a non-phytotoxic solvent mixture which included a surfactant.
# At the same time, these species were planted in pots containing Redi-Earth® planting medium (Scotts Company, 14111 Scottslawn Road, Marysville, Ohio 43041) comprising spaghnum peat moss, vermiculite, wetting agent and starter nutrients and treated with postemergence applications of the test chemicals formulated in the same manner. Plants ranged in height from 2 to 18 cm (1- to 4-leaf stage). Treated plants and controls were maintained in a controlled growth environment for 7 to 21 days after which time all species were compared to controls and visually evaluated. Plant response ratings, summarized in Table D, are based on a scale of 0 to 100 where 0 is no effect and 100 is complete control. A dash (-) response means no test result.
# [2] = test system: oilseed rape; assay: Test D preemergence; format: in vivo, Brassica napus; details: Brassica napus, pre-emergence, scale 0-100, read-out: Plant response rating, Oilseed Rape
# Summary of the method: (§1)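 Values are 0–100 visual control ratings (0 none, 100 complete) given 7–21 days after application. Soil for preemergence was silt loam; postemergence plants stood 2–18 cm tall.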
# [3] = test system: cocklebur; assay: Test E preemergence; format: in vivo, Xanthium strumarium; details: for Cocklebur plant response rating: scale 0 to 100 (0 no effect, 100 complete control); for Plant response rating, Cocklebur: scale 0 to 100, 0 no effect, 100 complete control
# From the text: Seeds of plant species selected from corn (Zea mays), soybean (Glycine max), velvetleaf (Abutilon theophrasti), lambsquarters (Chenopodium album), wild poinsettia (Euphorbia heterophylla), palmer pigweed (Amaranthus palmeri), waterhemp (common waterhemp, Amaranthus rudis), surinam grass (Brachiaria decumbens), large (Lg) crabgrass (Digitaria sanguinalis), Brazilian crabgrass (Digitaria horizontalis), fall panicum (Panicum dichotomiflorum), giant foxtail (Setaria faberii), green foxtail (Setaria viridis), goosegrass (Eleusine indica), johnsongrass (Sorghum halepense), ragweed (common ragweed, Ambrosia elatior), barnyardgrass (Echinochloa crus-galli), sandbur (southern sandbur, Cenchrus echinatus), arrowleaf sida (Sida rhombifolia), Italian ryegrass (Lolium multiflorum), dayflower (Virginia (VA) dayflower, Commelina virginica), field bindweed (Convolvulus arvensis), morningglory (Ipomoea coccinea), nightshade (eastern black nightshade, Solanum ptycanthum), kochia (Kochia scoparia), yellow nutsedge (Cyperus esculentus), cocklebur (common cocklebur, Xanthium strumarium), smartweed (ladysthumb smartweed, and hairy beggarticks (Bidens pilosa), were planted into a silt loam soil and treated preemergence with test chemicals formulated in a non-phytotoxic solvent mixture which included a surfactant.
# At the same time, plants from these crop and weed species and also horseweed (Canada horseweed, Conyza canadensis), waterhemp_RES1, (ALS & Triazine resistant common waterhemp, Amaranthus rudis), and waterhemp_RES2, (ALS & HPPD resistant common waterhemp, Amaranthus rudis) were planted in pots containing Redi-Earth® planting medium (Scotts Company, 14111 Scottslawn Road, Marysville, Ohio 43041) comprising spaghnum peat moss, vermiculite, wetting agent and starter nutrients were treated with postemergence applications of test chemicals formulated in the same manner. Plants ranged in height from 2 to 18 cm for postemergence treatments (1- to 4-leaf stage). Treated plants and controls were maintained in a greenhouse for 14 to 21 days, after which time all species were compared to controls and visually evaluated. Plant response ratings, summarized in Table E, are based on a scale of 0 to 100 where 0 is no effect and 100 is complete control. A dash (-) response means no test result.
# [4] = test system: wild radish; assay: Test D preemergence; format: in vivo, Raphanus raphanistrum; details: Raphanus raphanistrum, pre-emergence
# Summary of the method: as §1
# [5] = test system: bromegrass, downy; assay: Test D preemergence; format: in vivo, Bromus tectorum; details: Bromus tectorum, pre-emergence, scale 0-100, read-out: Plant response rating, Bromegrass, Downy
# Summary of the method: as §1
smiles,measurement,setting,value
"N#Cc1cccc(Oc2ncc(Cl)cn2)c1-n1cc(Br)cn1 [Compound 52, 2-(4-bromo-1H-pyrazol-1-yl)-3-[(5-chloro-2-pyrimidinyl)oxy]benzonitrile]",pest or weed control at 31 g/ha,[1]; 31 g ai/ha,20%
same,pest or weed control at 62 g/ha,[1]; 62 g ai/ha,35%
same,pest or weed control at 125 g/ha,[1]; 125 g ai/ha,30%
same,pest or weed control at 250 g/ha,[1]; 250 g ai/ha,35%
same,plant injury at 31 g/ha,[2]; 31 g ai/ha,0%
same,plant injury at 62 g/ha,[2]; 62 g ai/ha,80%
same,plant injury at 125 g/ha,[2]; 125 g ai/ha,100%
same,plant injury at 250 g/ha,[2]; 250 g ai/ha,100%
same,Cocklebur plant response rating,[3]; 16 g ai/ha,0
same,Cocklebur plant response rating,[3]; 31 g ai/ha,0
same,Cocklebur plant response rating,[3]; 62 g ai/ha,0
same,"Plant response rating, Cocklebur",[3]; 250 g ai/ha,25
same,pest or weed control at 31 g/ha,"[4]; 31 g ai/ha, scale 0 (no effect) to 100 (complete control), read-out: Plant response rating, Radish, Wild",30%
same,pest or weed control at 62 g/ha,"[4]; 62 g ai/ha, scale 0-100, read-out: Plant response rating, Radish, Wild",80%
same,pest or weed control at 125 g/ha,"[4]; 125 g ai/ha, scale 0-100, read-out: Plant response rating, Radish, Wild",95%
same,pest or weed control at 250 g/ha,"[4]; 250 g ai/ha, scale 0-100, read-out: Plant response rating, Radish, Wild",100%
same,pest or weed control at 31 g/ha,[5]; 31 g ai/ha,0%
same,pest or weed control at 62 g/ha,[5]; 62 g ai/ha,0%
same,pest or weed control at 125 g/ha,[5]; 125 g ai/ha,0%
same,pest or weed control at 250 g/ha,[5]; 250 g ai/ha,0%
N#Cc1cccc(Oc2ncc(Cl)cn2)c1-n1cc(Cl)cn1 [Compound 72],Cocklebur plant response rating,[3]; 16 g ai/ha,0
same,"Plant response rating, Cocklebur",[3]; 125 g ai/ha,0
same,"Plant response rating, Cocklebur",[3]; 250 g ai/ha,15
N#Cc1cnn(-c2c(C#N)cccc2Oc2ncc(Cl)cn2)c1 [Compound 200],Cocklebur plant response rating,[3]; 16 g ai/ha,0
same,Cocklebur plant response rating,[3]; 31 g ai/ha,0
same,"Plant response rating, Cocklebur",[3]; 125 g ai/ha,75
same,"Plant response rating, Cocklebur",[3]; 250 g ai/ha,95
